Data on 6 compounds can be found in article PMC7689923 (ACS Omega, 2020).

The test system of experiment [1] is Mtb. The following applies: cited from earlier work.
The target of experiment [2] is T1, KasA (Mycobacterium tuberculosis, UniProt P9WQD9).
T1 sequence (P9WQD9 1-416): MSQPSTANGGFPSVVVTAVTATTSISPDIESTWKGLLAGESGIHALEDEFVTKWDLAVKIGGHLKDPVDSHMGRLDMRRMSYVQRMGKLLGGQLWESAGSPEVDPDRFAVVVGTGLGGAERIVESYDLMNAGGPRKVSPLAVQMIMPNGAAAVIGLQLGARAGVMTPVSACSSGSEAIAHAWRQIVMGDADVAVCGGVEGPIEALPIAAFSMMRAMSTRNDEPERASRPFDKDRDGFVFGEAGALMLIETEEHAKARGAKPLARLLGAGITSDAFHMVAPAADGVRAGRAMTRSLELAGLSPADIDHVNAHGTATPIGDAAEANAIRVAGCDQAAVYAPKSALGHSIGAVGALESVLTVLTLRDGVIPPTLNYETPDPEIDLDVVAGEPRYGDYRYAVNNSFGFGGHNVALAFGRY
The experiment is described as follows: Thermal shift experiments using nanoDSF. It is filed as binding. In general terms: Differential scanning fluorimetry follows unfolding on heating by fluorescence.

Experiment [3] has as its target T1, KasA. The experiment is described as follows: biochemical. It is filed as binding. The conditions noted are these: for KasA binding via MST (in words): at the concentrations tested.
In experiment [4] the target is T1, KasA. The following applies: binder of KasA; cited from earlier work.

Broadly, the MIC is the least concentration at which growth counts as inhibited. By Kd is commonly meant the free concentration of one partner at which half of the binding sites on the other are occupied at equilibrium, for simple one-to-one binding. A low value points to a tighter complex. Broadly, the EC50 is the concentration that produces a half-maximal response.

≈ marks a conversion by molar mass, not a printed value. Where “and” joins values, the source holds several entries; their conditions need not be identical. Equal values may be shown once.

Turning to `Oc1cc(Cl)ccc1Oc1ccc(Cl)cc1Cl` [Triclosan, triclosan], the MIC in experiment [1] (Mtb inhibitor) was 12.5 µM (≈ 3.62 µg/mL).

With `CC[C@H](C)C(=O)O[C@H]1C[C@@H](C)C=C2C=C[C@H](C)[C@H](CC[C@@H]3C[C@@H](O)CC(=O)O3)[C@H]21` [Lovastatin, lovastatin], in experiment [2], the “change in Tm (in words)” value is on record as “did not show significant changes in Tm”. In experiment [3], the dissociation constant Kd is 224 µM and > 90 µM; the “KasA binding via MST (in words)” value is given as “showed binding to KasA”.

For the compound `CCCc1nn(C)c2c(=O)[nH]c(-c3cc(S(=O)(=O)N4CCN(C)CC4)ccc3OCC)nc12` [Sildenafil, sildenafil], in experiment [3], the dissociation constant Kd was 32.5 µM and 30 to 40 µM.

`COC(=O)Nc1nc2cc(C(=O)c3ccc(F)cc3)ccc2[nH]1` [Flubendazole, flubendazole]: the “change in Tm (in words)” value in experiment [2] is reported as “did not show significant changes in Tm”. In addition, in experiment [3], the dissociation constant Kd is 38.5 µM and 30 to 40 µM; the “KasA binding via MST (in words)” value is on record as “showed binding to KasA”.

For `CCCCS(=O)(=O)Nc1ccc2cnn(C)c2c1` [DG167], the “minimum inhibitor concentration (MIC)” value in experiment [1] is 0.39 M. The EC50 in experiment [4] was 0.131 ± 0.0182 µM.

On to `CCCNC(=O)NS(=O)(=O)c1ccc(Cl)cc1` [Chlorpropamide], for which, in experiment [2], the “change in Tm (in words)” value is “did not show significant changes in Tm”. In experiment [3], the Kd was 90.6 µM and > 90 µM; the “KasA binding via MST (in words)” value is recorded as “showed binding to KasA”.
